# Measurements: US9090632B2, “Bicyclic oxazole and thiazole compounds and their use as allosteric modulators of mGluR5 receptors” (Vanderbilt University, priority 2010, dated 2015)
# Tests used:
# human mGluR5 = human mGluR5 (Homo sapiens, UniProt P41594); experiment: Cell-based functional Ca2+ mobilization assay, potentiation of glutamate EC20 response (H10H cell-line); settings: H10H cell-line expressing recombinant human mGluR5; for Emax: in presence of glutamate EC20, normalized to maximal glutamate response; for EC50: potentiation in presence of glutamate EC20
# Chain of human mGluR5 (P41594 21-1180 isoform P41594-2 limits assumed): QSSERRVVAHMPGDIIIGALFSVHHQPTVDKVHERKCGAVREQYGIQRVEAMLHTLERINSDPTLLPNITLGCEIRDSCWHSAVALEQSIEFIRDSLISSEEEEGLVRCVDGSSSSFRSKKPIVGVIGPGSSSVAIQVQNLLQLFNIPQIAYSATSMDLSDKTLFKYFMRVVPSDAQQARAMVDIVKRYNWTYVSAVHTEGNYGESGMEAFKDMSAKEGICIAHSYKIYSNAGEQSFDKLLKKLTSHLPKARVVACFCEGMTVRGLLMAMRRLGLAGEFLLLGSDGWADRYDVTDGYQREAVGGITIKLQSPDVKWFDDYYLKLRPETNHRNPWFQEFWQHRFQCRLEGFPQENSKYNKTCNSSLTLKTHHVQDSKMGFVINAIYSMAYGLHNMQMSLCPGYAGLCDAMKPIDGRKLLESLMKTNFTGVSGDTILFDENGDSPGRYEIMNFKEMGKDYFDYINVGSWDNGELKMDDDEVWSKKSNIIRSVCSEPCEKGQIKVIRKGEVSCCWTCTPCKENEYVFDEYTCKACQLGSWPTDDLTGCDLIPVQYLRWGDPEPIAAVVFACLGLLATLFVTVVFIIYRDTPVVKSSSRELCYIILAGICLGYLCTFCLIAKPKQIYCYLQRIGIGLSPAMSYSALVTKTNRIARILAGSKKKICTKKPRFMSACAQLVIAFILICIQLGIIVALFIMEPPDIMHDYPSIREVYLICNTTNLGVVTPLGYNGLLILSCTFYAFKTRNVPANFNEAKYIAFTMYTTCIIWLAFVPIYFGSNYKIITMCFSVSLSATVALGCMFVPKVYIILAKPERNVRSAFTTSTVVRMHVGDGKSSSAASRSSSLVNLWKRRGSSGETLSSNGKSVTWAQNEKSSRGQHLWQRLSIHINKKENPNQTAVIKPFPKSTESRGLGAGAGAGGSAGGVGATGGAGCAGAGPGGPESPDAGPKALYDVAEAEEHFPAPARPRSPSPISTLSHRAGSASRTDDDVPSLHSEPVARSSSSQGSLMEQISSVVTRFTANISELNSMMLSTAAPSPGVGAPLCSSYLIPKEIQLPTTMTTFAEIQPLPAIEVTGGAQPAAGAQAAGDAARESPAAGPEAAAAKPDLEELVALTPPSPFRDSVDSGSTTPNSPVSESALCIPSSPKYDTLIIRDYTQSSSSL
# Summary of the method: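 H10H HEK293A cells expressing human mGluR5a were loaded with 2 μM fluo-4 AM in HBSS/20 mM HEPES/2.5 mM probenecid pH 7.4 and read on an FDSS 6000. Compound was added after a ~3 s baseline, followed 2.3 min later by an EC20 glutamate concentration; potentiation EC50 came from non-linear curve fitting.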
# [1] = tested on: amphetamine-induced hyperlocomotion; experiment: Reversal of amphetamine-induced hyperlocomotion; type: in vivo, rat; settings: male Sprague-Dawley rats; test compound po in 20% HP-β-CD; amphetamine sulfate 1 mg/kg sc
# Protocol: Locomotor activity was assessed as mean distance traveled (cm) in standard 16×16 photocell testing chambers measuring 43.2 cm (Length)×43.2 cm (Width)×30.5 cm (Height) (Med Associates, St. Albans, Vt.). Animals were habituated to individual activity chambers for at least 30 min prior to drug administration. Following administration of drug or vehicle, activity was recorded for a 90 minute time period. Data was expressed as the mean (±SEM) distance traveled recorded in 5 min intervals over the test period. The data was analyzed using repeated measures analysis of variance (ANOVA) followed by post-hoc testing using Dunnett's test, when appropriate. A difference was considered significant when p≦0.05. […]
# The animals were habituated in Smart Open Field locomotor activity test chambers (Hamilton-Kinder, San Diego, Calif.) with 16×16 photobeams to automatically record locomotor activity for 30 min and then dosed with vehicle or test compound. […] At 60 min, all rats were injected subcutaneously with 1 mg/kg amphetamine or vehicle and then monitored for an additional 60 min. Animals are monitored for a total of 120 minutes. Data are expressed as changes in ambulation defined as total number of beam breaks per 5 min periods.
# The data for the dose-response studies were analyzed by a between-group analysis of variance. […]
Compound,Emax (human mGluR5),EC50 (human mGluR5),reversal of amphetamine-induced hyperlocomotion [1],melting point
"O=C(c1ccc(F)cc1)N1CCc2nc(COc3ccccc3)oc2C1 [Example B1, 5-[(4-fluorophenyl)carbonyl]-2-(phenoxymethyl)-4,5,6,7-tetrahydro[1,3]oxazolo[5,4-c]pyridine]",84%,380 nM,Dose-dependent results for reversal of amphetamine-induced hyperlocomotion,–
"O=C(c1ccccc1F)N1CCc2nc(COc3ccccc3)sc2C1 [Example B5, 5-[(2-fluorophenyl)carbonyl]-2-(phenoxymethyl)-4,5,6,7-tetrahydro[1,3]thiazolo[5,4-c]pyridine]",64%,871 nM,–,124.1 to 125.3 °C
Cn1cccc1C(=O)N1CCc2nc(COc3ccccc3)oc2C1 [Example B84],53%,257 nM,–,78.5 °C
N#Cc1cc(C(=O)N2CCc3nc(COc4ccccc4)oc3C2)ccc1F [Example B98],73%,741 nM,–,128.2 °C
O=C(c1ccno1)N1CCc2nc(COc3ccccc3)oc2C1 [Example B88],53%,1780 nM,–,92.5 °C
Cc1nc(C(=O)N2CCc3nc(COc4ccccc4)oc3C2)c(C)o1 [Example B86],53%,> 10000 nM,–,104.4 °C
Cc1oncc1C(=O)N1CCc2nc(COc3ccccc3)oc2C1 [Example B71],21%,331 nM,–,158.2 °C
O=C(c1cncc(F)c1)N1CCc2nc(COc3ccccc3)oc2C1 [Example B65],49%,3720 nM,–,98.3 °C
O=C(c1ccccc1)N1CCc2nc(COc3cccc(F)c3)oc2C1 [Example B26],80%,251 nM,–,204.7 °C
N#Cc1ccc(C(=O)N2CCc3nc(COc4ccccc4)oc3C2)cc1 [Example B49],58%,3090 nM,–,132.2 °C
O=C(c1ccc(F)cc1)N1CCc2nc(COc3cccc(C(F)(F)F)c3)oc2C1 [Example B127],40%,> 10000 nM,–,78.9 °C
O=C(c1ccc2c(c1)OCO2)N1CCc2nc(COc3ccccc3)oc2C1 [Example B76],75%,708 nM,–,121.3 °C
O=C(c1ccc(OC(F)(F)F)cc1)N1CCc2nc(COc3ccccc3)oc2C1 [Example B75],70%,933 nM,–,> 300 °C
"O=C(N1CCc2nc(COc3ccccc3)oc2C1)C(F)(F)F [Example B34, 2-(phenoxymethyl)-5-(trifluoroacetyl)-4,5,6,7-tetrahydro[1,3]oxazolo[5,4-c]pyridine]",10%,891 nM,–,71.8 °C
O=C(c1ccnnc1)N1CCc2nc(COc3ccccc3)oc2C1 [Example B150],44%,> 10000 nM,–,> 300 °C
"O=C(c1ccc(F)cc1)N1CCc2nc(COc3ccc(O)cc3)oc2C1 [Example B35, 4-({5-[(4-fluorophenyl)carbonyl]-4,5,6,7-tetrahydro[1,3]oxazolo[5,4-c]pyridin-2-yl}methoxy)phenol]",57%,> 10000 nM,–,137.4 °C
N#Cc1ccc(C(=O)N2CCc3nc(COc4cccc(F)c4)oc3C2)cc1F [Example B89],61%,2190 nM,–,102.9 °C
O=C(c1cccc2c1OCCO2)N1CCc2nc(COc3ccccc3)oc2C1 [Example B99],57%,776 nM,–,55.5 °C
O=C(c1cncc(F)c1)N1CCc2nc(COc3cccc(F)c3)oc2C1 [Example B67],49%,3020 nM,–,> 300 °C
N#Cc1cccc(C(=O)N2CCc3nc(COc4cccc(F)c4)oc3C2)c1 [Example B85],57%,219 nM,–,> 300 °C
O=C(c1ccc2ccccc2n1)N1CCc2nc(COc3ccccc3)oc2C1 [Example B79],59%,1820 nM,–,107.6 °C
"O=C(c1cccc(F)c1)N1CCc2nc(COc3ccccc3)oc2C1 [Example B7, 5-[(3-fluorophenyl)carbonyl]-2-(phenoxymethyl)-4,5,6,7-tetrahydro[1,3]oxazolo[5,4-c]pyridine]",80%,112 nM,–,66 °C
